# Source: ChEMBL document CHEMBL1159019, “A strategy for identifying novel, mechanistically unique inhibitors of topoisomerase I” (J Nat Prod, 1992)
# Experiments:
# DNA topoisomerase 1 [1] = target: T1, DNA topoisomerase 1 (Homo sapiens, UniProt P11387); test: Inhibition of human COLO201 cellular topoisomerase-1 mediated plasmid DNA cleavage by electrophoresis in presence of 14 units of enzyme
# T1 sequence (P11387 whole entry): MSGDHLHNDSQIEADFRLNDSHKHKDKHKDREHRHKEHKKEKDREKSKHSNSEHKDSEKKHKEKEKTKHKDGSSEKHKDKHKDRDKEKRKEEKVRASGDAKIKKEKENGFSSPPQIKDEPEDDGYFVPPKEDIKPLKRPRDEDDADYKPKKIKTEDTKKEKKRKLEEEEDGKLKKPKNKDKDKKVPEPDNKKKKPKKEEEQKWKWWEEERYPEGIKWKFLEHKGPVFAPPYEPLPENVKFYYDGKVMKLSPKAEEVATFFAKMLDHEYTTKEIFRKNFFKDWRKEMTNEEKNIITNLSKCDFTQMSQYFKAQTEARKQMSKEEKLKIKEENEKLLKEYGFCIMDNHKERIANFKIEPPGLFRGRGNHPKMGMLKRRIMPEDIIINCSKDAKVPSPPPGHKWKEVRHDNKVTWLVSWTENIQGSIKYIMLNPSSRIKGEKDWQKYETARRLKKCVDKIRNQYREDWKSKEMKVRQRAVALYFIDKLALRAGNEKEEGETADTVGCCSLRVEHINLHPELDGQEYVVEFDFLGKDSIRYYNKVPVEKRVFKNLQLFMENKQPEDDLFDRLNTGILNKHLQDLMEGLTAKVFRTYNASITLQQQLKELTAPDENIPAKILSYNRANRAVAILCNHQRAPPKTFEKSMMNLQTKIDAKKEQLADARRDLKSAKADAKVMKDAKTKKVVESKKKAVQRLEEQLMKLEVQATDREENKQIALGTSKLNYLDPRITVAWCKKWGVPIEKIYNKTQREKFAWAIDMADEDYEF
# DNA topoisomerase 1 [2] = target: T1, DNA topoisomerase 1; test: Inhibition of human COLO201 cellular topoisomerase-1 mediated plasmid DNA cleavage by electrophoresis in presence of 70 units of enzyme
IC50 (DNA topoisomerase 1 [1]),IC50 (DNA topoisomerase 1 [2]),Structure (SMILES)
50 nM,100 nM,O=C(O)C[C@@H]1C(=O)O[C@H]2[C@@H]3OC(=O)c4cc(O)c(O)c(O)c4-c4c(cc(O)c(O)c4O)C(=O)OC[C@H]2O[C@@H](OC(=O)c2cc(O)c(O)c(O)c2)[C@@H]3OC(=O)c2cc(O)c(O)c3c2[C@H]1[C@H](O)C(=O)O3 [CHEBULAGIC ACID]
,40000 nM,O=C(O[C@@H]1O[C@@H]2COC(=O)c3cc(O)c(O)c(O)c3-c3c(cc(O)c(O)c3O)C(=O)O[C@H]([C@H]1O)[C@@H]2O)c1cc(O)c(O)c(O)c1 [CORILAGIN]
